# Data: patent US10174358B2 (priority 2013, dated 2019)
# Target: T1, EF-Tu:GTP:aa-tRNA ternary complex (Escherichia coli, UniProt P0CE48, C138A/C256V/E349C)
# T1 construct: made in house; host or cells: E. coli BL-21
# Type: binding
# Settings: for effect of the inhibitor on fluorescence intensity in the assay: addition of inhibitor to the formed ternary complex, Ex 532/Em 665 nm
# Experimental: FRET Assay (Assembly Fluorescence)
# FRET measurements were done using Photon Technology International fluorescence spectrofluorometer with FeliX software. Cy3 fluorescence was monitored in the spectrum or time base mode at excitation/emission 549/565 nm. […] The slot parameters and photomultiplier voltage were adjusted to get a response in the range of 0.5-1.2×10^6 RFU for the Cy3 fluorescence scan at the 20-30 nM Phe-tRNA^Phe(Cy3) concentration and 4-5×10^4 RFU for Cy5 fluorescence scan (excitation/emission 633/665 nm) at the 300-400 nM Cy5-EF-Tu concentration. The titration of Phe-tRNA^Phe(Cy3) by Cy5-EF-Tu was typically done in presence of 100 μM GTP in a 150 μl volume of the same incubation buffer as used in the above mentioned gel retardation assay. During the assay (up to 120 minutes), the reaction mix also was supplemented with 1 mM ATP and 5 μg/ml of Phe-tRNA synthetase to prevent deacylation of Phe-tRNA^Phe(Cy3). The concentration of Phe-RNA^Phe(Cy3) was up to 30 nM and GTP:Cy5-EF-Tu was varied in range of 30-240 nM.
# All FRET measurements were done using PTI (Photon Technology International) fluorescence spectrofluorometer with FeliX 1.42B software. The FRET was monitored in the time-base mode using the 532 nm excitation and 665 nm emission (suitable for the Cy5 dye). The slot parameters and photomultiplier voltage were adjusted to get a response in the range of 2.6-3×10^3 RFU for the Cy5 fluorescence at a 200 nM concentration of Cy5-labeled EF-Tu. Time-base titration experiments were typically carried out in a 150 μl black cuvette at 25 or 37° C. The Cy5 fluorescence was monitored at five second intervals for up to 2 hours. Cy5-labeled EF-Tu carrying the E348C mutation was added from a concentrated stock solution to reach the final concentration of 180-200 nM.
# The 5× incubation buffer was 350 mM HEPES-KOH (pH 7.6), 260 mM NH4OAc, 40 mM Mg(OAc)2, 150 mM KCl, 7 mM DTT and 12.6% glycerol. The 1× incubation buffer in final reaction volume was also supplemented with 1 mM ATP and 5 μg/ml of Phe-tRNA synthetase, 7.2 mM phosphoenolpyruvate and 2.5 U/ml pyruvate kinase; a 40 μM stock of Cy3-labeled aminoacylated tRNA^Phe, a 30 μM stock of Cy3-labeled uncharged tRNA^Phe, a 110 μM stock of Cy5-labeled EF-Tu [C137A, C255V, E348C], a 5 mg/ml stock of Phe-tRNA synthetase, and a 10 mM stock in DMSO (7.97 mg/ml) of Kirromycin (FW 796.9).
# The Cy5-labeled EF-Tu [180 nM] (GTP form) in a 300 μl volume was placed in 1× incubation buffer. The volume was split into two parts and measured in two sets at 25° C.
# The Cy5-labeled EF-Tu [180 nM] (GTP form) in a 300 μl volume was placed in 1× incubation buffer. The reaction was split into two parts and supplemented with 100 μM GTP (Set I) or GDP (Set II). The fluorescence intensity was measured at 25° C.
# The Cy5-labeled EF-Tu [320 nM] (GTP form) was in a 300 μl volume of the 1× incubation buffer. The reaction was supplemented with 100 μM GTP and split on two parts.
# T1 sequence (P0CE48 2-394 C138A/C256V/E349C, one chain of several): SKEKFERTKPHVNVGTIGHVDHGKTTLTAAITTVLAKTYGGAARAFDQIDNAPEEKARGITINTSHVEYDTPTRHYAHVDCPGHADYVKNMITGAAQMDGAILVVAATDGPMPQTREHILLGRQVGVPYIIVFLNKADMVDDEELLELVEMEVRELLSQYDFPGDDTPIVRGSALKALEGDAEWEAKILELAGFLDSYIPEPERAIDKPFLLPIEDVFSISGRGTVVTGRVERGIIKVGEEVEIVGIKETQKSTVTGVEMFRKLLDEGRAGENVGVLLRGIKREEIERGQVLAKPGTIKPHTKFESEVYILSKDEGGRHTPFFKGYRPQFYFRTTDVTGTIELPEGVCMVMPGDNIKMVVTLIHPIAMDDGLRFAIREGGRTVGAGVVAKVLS
Compound,"decrease in the Cy5 fluorescence of the formed complex (10-fold molar excess of GDP added to formed complex, Cy5-EF-Tu 180 nM, 100 μM GTP, Phe-tRNA^Phe(Cy3) 160 nM, 25° C., FIG. 12)","FRET response when Cy5-labeled EF-Tu was incubated with GDP (Cy5-EF-Tu 180 nM incubated with 100 μM GDP instead of GTP (plot 2 / set II), FIG. 12)",effect of the inhibitor on fluorescence intensity in the assay,"decrease of FRET response after addition of kirromycin (kirromycin 80 μM, Cy5-labeled EF-Tu 180 nM (GTP form), Cy3-PhetRNA^Phe 160 nM, 25° C., FIG. 13)"
Nc1nc2c(ncn2[C@@H]2O[C@H](COP(=O)(O)OP(=O)(O)O)[C@@H](O)[C@H]2O)c(=O)[nH]1 [GDP],60%,significantly lower,significantly reduces the fluorescence intensity,
kirromycin,,,significantly reduces the fluorescence intensity,approximately 30%
